Data taken from patent publication US7888363B2, “Viral polymerase inhibitors” (Boehringer Ingelheim International GmbH, priority 2003, dated 2011).

Target: hepatitis C virus RNA dependant polymerase (NS5B) (Hepatitis C virus genotype 1b, UniProt P26663)
Assay: Inhibition of NS5B RNA dependent RNA polymerase activity
Type: biochemical
Details: Table 1; HCV NS5B polymerase
Method: A suitable assay is described in the examples.
Inhibition of NS5B RNA Dependent RNA Polymerase Activity
The compounds of the invention were tested for inhibitory activity against the hepatitis C virus RNA dependant polymerase (NS5B), according to protocol described in WO 03/010141

Chain of hepatitis C virus RNA dependant polymerase (NS5B) (P26663 2420-3010): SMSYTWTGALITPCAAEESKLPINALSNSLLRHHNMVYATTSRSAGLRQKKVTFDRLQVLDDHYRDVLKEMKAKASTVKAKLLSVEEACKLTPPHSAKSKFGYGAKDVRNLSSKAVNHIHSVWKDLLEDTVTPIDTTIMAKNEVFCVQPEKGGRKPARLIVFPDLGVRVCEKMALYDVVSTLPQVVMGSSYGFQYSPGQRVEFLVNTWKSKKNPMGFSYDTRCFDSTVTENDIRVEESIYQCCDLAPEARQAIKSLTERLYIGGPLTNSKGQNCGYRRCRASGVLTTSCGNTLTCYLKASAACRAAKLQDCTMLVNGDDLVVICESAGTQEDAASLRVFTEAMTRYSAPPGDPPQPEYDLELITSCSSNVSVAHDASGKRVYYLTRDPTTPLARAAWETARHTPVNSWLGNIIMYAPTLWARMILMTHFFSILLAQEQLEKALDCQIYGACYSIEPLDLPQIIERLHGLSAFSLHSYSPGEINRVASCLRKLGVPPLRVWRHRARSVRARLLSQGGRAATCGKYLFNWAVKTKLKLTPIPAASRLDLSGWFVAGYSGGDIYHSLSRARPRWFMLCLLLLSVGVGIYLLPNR

IC50 [nM]	SMILES
< 200	CN(C)CC(=O)NNC(=O)Cn1c(-c2ccoc2)c(C2CCCCC2)c2ccc(C(=O)O)cc21 [Example 1132]
200 to 1000	O=C(Cn1c(-c2ccoc2)c(C2CCCCC2)c2ccc(C(=O)O)cc21)NC1CCCCC1 [Example 1088]
200 to 1000	CC(C)NC(=O)Cn1c(-c2ccoc2)c(C2CCCCC2)c2ccc(C(=O)O)cc21 [Example 1106]
< 200	CN(C)C(=O)Cn1c(-c2ccsc2)c(C2CCCCC2)c2ccc(C(=O)O)cc21 [Example 1028]
< 200	O=C(O)c1ccc2c(C3CCCCC3)c(-c3ccoc3)n(CC(=O)N3CCC[C@H]3C(=O)O)c2c1 [Example 1066]
200 to 1000	O=C(Cn1c(-c2ccoc2)c(C2CCCCC2)c2ccc(C(=O)O)cc21)Nc1ccc(C(=O)O)cc1 [Example 1061]
< 200	O=C(O)c1ccc2c(C3CCCCC3)c(-c3ccoc3)n(CC(=O)N3CCCC3)c2c1 [Example 1094]
200 to 1000	CC(C)NC(=O)Cn1c(-c2cccs2)c(C2CCCCC2)c2ccc(C(=O)O)cc21 [Example 1036]
200 to 1000	CN1CCN(C(=O)Cn2c(-c3ccc(Br)cn3)c(C3CCCCC3)c3ccc(C(=O)O)cc32)CC1 [Example 1134]
< 200	O=C(O)c1ccc2c(C3CCCCC3)c(-c3cccs3)n(CC(=O)N3CCOCC3)c2c1 [Example 1033]
< 200	O=C(O)/C=C/c1ccc(NC(=O)[C@@]2(NC(=O)Cn3c(-c4ccoc4)c(C4CCCCC4)c4ccc(C(=O)O)cc43)CCNC2)cc1 [Example 1079]
< 200	CCN(CC)CCN(CC)C(=O)Cn1c(-c2ccoc2)c(C2CCCCC2)c2ccc(C(=O)O)cc21 [Example 1007]
< 200	CCN1CCN(C(=O)Cn2c(-c3ccoc3)c(C3CCCCC3)c3ccc(C(=O)O)cc32)CC1 [Example 1120]
< 200	O=C(Cn1c(-c2ccoc2)c(C2CCCCC2)c2ccc(C(=O)O)cc21)N[C@@H](Cc1ccc(O)cc1)C(=O)O [Example 1055]
< 200	CN(CCc1ccncc1)C(=O)Cn1c(-c2ccoc2)c(C2CCCCC2)c2ccc(C(=O)O)cc21 [Example 1004]
200 to 1000	O=C(O)/C=C/c1ccc(NC(=O)Cn2c(-c3ccoc3)c(C3CCCCC3)c3ccc(C(=O)O)cc32)cc1 [Example 1071]
< 200	O=C(O)c1ccc2c(C3CCCCC3)c(-c3ccoc3)n(CC(=O)N3CCC(C(=O)O)CC3)c2c1 [Example 1058]

Same assay, conditions: Table 2; HCV NS5B polymerase

IC50 [nM]	SMILES
< 200	O=C(NS(=O)(=O)c1cc(Cl)sc1Cl)c1ccc2c(C3CCCCC3)c(-c3ccoc3)n(CC(=O)N3CCOCC3)c2c1 [Example 2030]
< 200	O=C(NS(=O)(=O)C1CC1)c1ccc2c(C3CCCCC3)c(-c3ccoc3)n(CC(=O)N3CCOCC3)c2c1 [Example 2026]
< 200	O=C(NS(=O)(=O)c1ccccc1Br)c1ccc2c(C3CCCCC3)c(-c3ccoc3)n(CC(=O)N3CCOCC3)c2c1 [Example 2011]
< 200	O=C(NS(=O)(=O)c1cccc2nsnc12)c1ccc2c(C3CCCCC3)c(-c3ccoc3)n(CC(=O)N3CCOCC3)c2c1 [Example 2035]
< 200	O=C(NS(=O)(=O)CC(F)(F)F)c1ccc2c(C3CCCCC3)c(-c3ccoc3)n(CC(=O)N3CCOCC3)c2c1 [Example 2027]
< 200	O=C(NS(=O)(=O)c1ccc(Br)cc1)c1ccc2c(C3CCCCC3)c(-c3ccoc3)n(CC(=O)N3CCOCC3)c2c1 [Example 2008]
< 200	CS(=O)(=O)NC(=O)c1ccc2c(C3CCCCC3)c(-c3ccoc3)n(CC(=O)N3CCOCC3)c2c1 [Example 2002]

Same assay, conditions: Table 3; HCV NS5B polymerase

IC50 [nM]	SMILES
< 200	CN1CCN(C(=O)Cn2c(-c3ccccn3)c(C3CCCCC3)c3ccc(C(=O)NC4(C(=O)Nc5ccc(/C=C/C(=O)O)cc5)CCC4)cc32)CC1 [Example 3007]
< 200	CN1CCN(C(=O)Cn2c(-c3ccccn3)c(C3CCCCC3)c3ccc(C(=O)NC(C)(C)C(=O)Nc4ccc(/C=C/C(=O)O)cc4)cc32)CC1 [Example 3006]

Same assay, conditions: Table 4; class ranges

SMILES	IC50 [nM]
CN1CCN(C(=O)Cn2c(-c3ccoc3)c(C3CCCCC3)c3ccc(C(=O)NC(C)(C)CO)cc32)CC1 [Example 4019]	200 to 1000
CN1CCN(C(=O)Cn2c(-c3ccoc3)c(C3CCCCC3)c3ccc(C(=O)NC4CCS(=O)(=O)C4)cc32)CC1 (stereo not drawn) [Example 4033]	1000 to 10000
CN1CCN(C(=O)Cn2c(-c3ccoc3)c(C3CCCCC3)c3ccc(C(=O)NCc4ccc(O)c(O)c4)cc32)CC1 [Example 4029]	< 200
CN(C)CCNC(=O)c1ccc2c(C3CCCCC3)c(-c3ccoc3)n(CC(=O)N3CCN(C)CC3)c2c1 [Example 4025]	200 to 1000
O=C(NC(=O)c1ccc2c(C3CCCCC3)c(-c3ccoc3)n(CC(=O)N3CCOCC3)c2c1)c1ccccc1 [Example 4065]	1000 to 10000
COc1ccc(CNC(=O)c2ccc3c(C4CCCCC4)c(-c4ccoc4)n(CC(=O)N4CCOCC4)c3c2)cc1OC [Example 4006]	< 200

Other lines, results leading:

IC50 [nM]	SMILES
< 200	N#CC1(NC(=O)c2ccc3c(C4CCCCC4)c(-c4ccoc4)n(CC(=O)N4CCC(N5CCCC5)CC4)c3c2)CCC1 [Example 4090]
< 200	CN(C)C(=O)C1(NC(=O)c2ccc3c(C4CCCCC4)c(-c4ccoc4)n(CC(=O)N4CCC(N5CCCC5)CC4)c3c2)CCCC1 [Example 4095]
< 200	CC(C)(NC(=O)c1ccc2c(C3CCCCC3)c(-c3ccoc3)n(CC(=O)N3CCOCC3)c2c1)C(N)=O [Example 4077]
< 200	CS(=O)(=O)NC(=O)c1ccc2c(C3CCCCC3)c(-c3ccoc3)n(CC(=O)N3CCC(N4CCCC4)CC3)c2c1 [Example 4109]
200 to 1000	COC(=O)C(C)(C)NC(=O)c1ccc2c(C3CCCCC3)c(-c3ccoc3)n(CC(=O)N3CCOCC3)c2c1 [Example 4075]
< 200	CN(C)C(=O)C(C)(C)NC(=O)c1ccc2c(C3CCCCC3)c(-c3ccoc3)n(CC(=O)N3CCC(N4CCCC4)CC3)c2c1 [Example 4086]
< 200	CNc1nc(C2(NC(=O)c3ccc4c(C5CCCCC5)c(-c5ccoc5)n(CC(=O)N5CCC(N6CCCC6)CC5)c4c3)CCC2)cs1 [Example 4103]
< 200	NC(=O)C1(NC(=O)c2ccc3c(C4CCCCC4)c(-c4ccoc4)n(CC(=O)N4CCOCC4)c3c2)CCC1 [Example 4092]

Same assay, conditions: Table 7; class ranges

IC50 [nM]	SMILES
1000 to 10000	CC(=O)NCCNC(=O)c1ccc2c(c1)c(C1CCCCC1)c(-c1ccoc1)n2CC(=O)N1CCC(N2CCCC2)CC1 [Example 7031]
1000 to 10000	NS(=O)(=O)c1ccc(CCNC(=O)c2ccc3c(c2)c(C2CCCCC2)c(-c2ccoc2)n3CC(=O)N2CCC(N3CCCC3)CC2)cc1 [Example 7032]
1000 to 10000	O=C(Nc1cccc(-c2ccccc2)c1)c1ccc2c(c1)c(C1CCCCC1)c(-c1ccoc1)n2CC(=O)N1CCC(N2CCCC2)CC1 [Example 7037]
1000 to 10000	O=C(NC(CCO)c1ccccc1)c1ccc2c(c1)c(C1CCCCC1)c(-c1ccoc1)n2CC(=O)N1CCC(N2CCCC2)CC1 (stereo not drawn) [Example 7049]
1000 to 10000	O=C(NCc1ccccc1)c1ccc2c(c1)c(C1CCCCC1)c(-c1ccoc1)n2CC(=O)N1CCC(N2CCCC2)CC1 [Example 7027]
1000 to 10000	O=C(O)c1cc2c(cc1O)c(C1CCCCC1)c(-c1ccoc1)n2CC(=O)N1CCC(N2CCCC2)CC1 [Example 7007]
1000 to 10000	CC(C)(C)OC(=O)C(C)(C)NC(=O)c1ccc2c(c1)c(C1CCCCC1)c(-c1ccoc1)n2CC(=O)N1CCC(N2CCCC2)CC1 [Example 7047]
1000 to 10000	O=C(NCCc1c[nH]cn1)c1ccc2c(c1)c(C1CCCCC1)c(-c1ccoc1)n2CC(=O)N1CCC(N2CCCC2)CC1 [Example 7015]
